{
  "source": "patent US20150056191A1",
  "about": "“IGF1 BIOMARKER FOR IGF1R INHIBITOR THERAPY” (MERCK SHARP & DOHME CORP., priority 2012, published 2015)",
  "key": {"IGF1 receptor": {"target": "IGF1 receptor (Homo sapiens, UniProt P08069)", "test": "Blocking of IGF1 binding to the IGF1 receptor"}, "H2122 NSCLC cells": {"test_system": "H2122 NSCLC cells", "test": "H2122 cell growth with and without IGF1 (Cell Titer-Glo)", "type": "cell-based", "conditions": "10 ug/ml MK-0646, 96 hours, 2% fetal calf serum", "description": "H2122 cells were obtained from the American Type Culture Collection (ATCC) and propagated according to the conditions provided by ATCC in media at 37° C. H2122 cells in low serum (2% fetal calf serum (Hyclone), at 2000 cells/well, were plated in a 96 well plate and incubated with 10 ug/ml MK-0646 or vehicle control for 96 hours in the presence or absence of IGF1 (10 ng; SIGMA). Cells were harvested at day 0 and day 4 and cell growth was measured by Cell Titer-Glo® ([…]) according to manufacturer instructions. The relative cell proliferation was calculated by normalizing to day 0 levels."}, "[1]": {"conditions": "cited from earlier work"}, "[2]": {"test_system": "primary colorectal xenograft tumor models", "test": "Primary colorectal xenograft tumor models, tumor growth inhibition", "type": "in vivo", "description": "Primary colorectal xenograft tumor models were established from 10 independent colorectal tumors obtained directly from cancer patients. The relative levels of IGF1RNA expression were determined by gene expression profiling using genomic microarrays. […] These preclinical data provided in vivo evidence that increase sensitivity to the anti-IGF1R antibody, MK-0646, was strongly associated with increase IGF1RNA expression in the primary tumors."}},
  "note": "“Also recorded” adds a separate entry of the source. Where two headings read alike, the source gives them in different places.",
  "data": [
    {"substance": "MK-0646: anti-IGF1R monoclonal antibody dalotuzumab (MK0646; CAS no. 1005389-60-5)", "values": [
      {"measurement": "blocking IGF1 ability to bind directly to the IGF1 receptor", "setting": "IGF1 receptor", "value": "capable of blocking"},
      {"measurement": "proliferation of H2122 cells", "setting": "H2122 NSCLC cells; in the absence of IGF1", "value": "did not significantly alter"},
      {"measurement": "IGF1-dependent proliferation / relative cell growth of H2122 cells", "setting": "H2122 NSCLC cells; in the presence of IGF1 (10 ng)", "value": "statistically significant growth inhibition; also recorded: significantly blocked"},
      {"measurement": "MTD", "setting": "[1]; with G alone", "value": 10, "unit": "mg/kg"},
      {"measurement": "MTD", "setting": "[1]; with Gemcitabine (G) and Erlotinib (E)", "value": 5, "unit": "mg/kg"},
      {"measurement": "tumor growth inhibition", "setting": "[2]; the 2 colorectal xenograft models with increased IGF1 RNA expression", "value": "at least 50%"},
      {"measurement": "tumor growth inhibition", "setting": "[2]; the 8 xenograft tumor models with low IGF1 expression", "value": "minimal or no tumor growth inhibition"}
    ]}
  ]
}
